This is an account of results in ChEMBL document CHEMBL5215005, “Discovery of Efrotomycin Congeners and Heterologous Expression-Based Insights into the Self-Resistance Mechanism” (2022).

Common to all, as to assay type: functional
Test [1] has as its system Streptomyces albus. Kind of test: Antibacterial activity against Streptomyces albus Del14 assessed as inhibition zone at 10 ug incubated for 2 days by disc diffusion assay. The settings on record: Del14, 48 h, time 2 day, read-out: IZ.
Test [2] deals with Streptomyces coelicolor. Kind of test: Antibacterial activity against Streptomyces coelicolor YF11 assessed as inhibition zone at 10 ug incubated for 2 days by disc diffusion assay. The settings on record: YF11, 48 h, time 2 day, read-out: IZ. Background: In agar diffusion tests the substance spreads into inoculated agar from a disc or well.
Test [3] concerns Micrococcus luteus. Kind of test: Antibacterial activity against Micrococcus luteus SCSIO ML01 by Mueller-Hinton broth microdilution method. On the technique in general: In broth dilution the organism is exposed to a series of concentrations in liquid medium.
Test [4] deals with Streptomyces lividans. Kind of test: Antibacterial activity against Streptomyces lividans SBT18 assessed as inhibition zone at 10 ug incubated for 2 days by disc diffusion assay. The note with it: SBT18, 48 h, time 2 day, read-out: IZ.

Converted amounts (≈) assume the structure as drawn.

Regarding `C/C=C\C=C\[C@@H]1O[C@](O)([C@H](CC)C(=O)NC/C=C/C=C(\C)[C@@H](OC)[C@@H](C)[C@H](O)[C@@H](O)\C=C/C=C/C=C/C=C(\C)C(=O)c2c(O)ccn(C)c2=O)[C@H](O)[C@H](O)C1(C)C`, the zone of inhibition at 10 µg/disc in test [1] is 15 mm; in test [2], 8 mm; in test [4], 8 mm. Further, in test [3], the minimal inhibitory concentration (MIC) (as a rule, the lowest concentration that inhibits growth of the organism) is 8 µg/mL (≈ 10.1 µM).

Regarding `C/C=C\C=C\[C@@H]1O[C@](O)([C@H](CC)C(=O)NC/C=C/C=C(\C)[C@@H](OC)[C@@H](C)[C@H](O)[C@@H](O)/C=C/C=C/C=C/C=C(\C)C(=O)c2c(O)ccn(C)c2=O)[C@H](O)[C@H](O[C@H]2O[C@@H](C)[C@H](O[C@@H]3O[C@@H](C)[C@H](O)[C@@H](O)[C@H]3OC)[C@H](OC)[C@@H]2O)C1(C)C`, in test [1], the zone of inhibition at 10 µg/disc turned out to be 15 mm. In test [3], the minimal inhibitory concentration (MIC) amounted to 8 µg/mL (≈ 7.17 µM).

Regarding `C/C=C\C=C\[C@@H]1O[C@](O)([C@@H](CC)C(=O)NC/C=C/C=C(\C)[C@H](OC)[C@H](C)[C@@H]2O[C@H](/C=C/C=C/C=C(\C)C(=O)c3c(O)ccn(C)c3=O)[C@@H](O)[C@H]2O)[C@H](O)[C@H](O[C@H]2O[C@@H](C)[C@H](O[C@@H]3O[C@@H](C)[C@H](O)[C@@H](O)[C@H]3OC)[C@H](OC)[C@@H]2O)C1(C)C`, the zone of inhibition at 10 µg/disc in test [1] was 15 mm. In test [3], it took 8 µg/mL (≈ 7.07 µM) to inhibit growth (MIC).

With `C/C=C\C=C\[C@@H]1O[C@](O)([C@H](CC)C(=O)NC/C=C/C=C(\C)[C@@H](OC)[C@@H](C)[C@H](O)[C@@H](O)\C=C/C=C/C=C/C=C(\C)C(=O)c2c(O)ccn(C)c2=O)[C@H](O)[C@H](O[C@H]2O[C@@H](C)[C@H](O[C@@H]3O[C@@H](C)[C@H](O)[C@@H](O)[C@H]3OC)[C@H](OC)[C@@H]2O)C1(C)C`, the zone of inhibition at 10 µg/disc in test [1] is 15 mm; in test [2], 8 mm; in test [4], 8 mm. In test [3], this compound had an MIC of 8 µg/mL (≈ 7.17 µM).

With `C/C=C\C=C\[C@@H]1O[C@](O)([C@@H](CC)C(=O)NC/C=C/C=C(\C)[C@H](OC)[C@H](C)[C@@H]2O[C@H](/C=C/C=C/C=C(\C)C(=O)c3c(O)ccn(C)c3=O)[C@H](O)[C@H]2O)[C@H](O)[C@H](O[C@H]2O[C@@H](C)[C@H](O[C@@H]3O[C@@H](C)[C@H](O)[C@@H](O)[C@H]3OC)[C@H](OC)[C@@H]2O)C1(C)C`, the zone of inhibition at 10 µg/disc in test [1] worked out at 15 mm. Moreover, in test [3], the MIC was found to be 8 µg/mL (≈ 7.07 µM).
